Experimental data: ChEMBL document CHEMBL3407403, “Synthetic modification of hydroxychavicol by Mannich reaction and alkyne-azide cycloaddition derivatives depicting cytotoxic potential” (Eur J Med Chem, 2015)
Active and inactive are the calls of the source. The rule behind the calls is not given here.

How the values were obtained:
[1] = test system: HL-60; assay: Reduction in mitochondrial membrane potential in human HL60 cells at 5 uM after 24 hrs by Rh-123-staining based flow cytometry (reference value: 7%); assay type: functional; set-up: scale not given: the % may be the effect or the level left
[2] = test system: HL-60; assay: Induction of apoptosis in human HL60 cells assessed as apoptotic bodies formation after 24 hrs by Hoechst 33342-staining based fluorescence microscopy; assay type: functional, cell-based
[3] = Growth inhibition of human HL60 cells at 30 uM after 72 hrs by MTT assay; assay type: functional; details: HL-60, 72 h, read-out: GI
[4] = Growth inhibition of human HL60 cells at 50 uM after 72 hrs by MTT assay; assay type: functional; details: HL-60, 72 h, read-out: GI
[5] = Growth inhibition of human MIAPaCa2 cells at 30 uM after 72 hrs by MTT assay; assay type: functional; details: MIA PaCa-2, 72 h, read-out: GI
[6] = Growth inhibition of human MIAPaCa2 cells at 50 uM after 72 hrs by MTT assay; assay type: functional; details: MIA PaCa-2, 72 h, read-out: GI
[7] = test system: MCF7; assay: Growth inhibition of human MCF7 cells at 30 uM after 72 hrs by MTT assay; assay type: functional; details: MCF7, 72 h, read-out: GI
[8] = test system: MCF7; assay: Growth inhibition of human MCF7 cells at 50 uM after 72 hrs by MTT assay; assay type: functional; details: MCF7, 72 h, read-out: GI
[9] = test system: HepG2; assay: Growth inhibition of human HepG2 cells at 30 uM after 72 hrs by MTT assay; assay type: functional; details: HepG2, 72 h, read-out: GI
[10] = test system: HepG2; assay: Growth inhibition of human HepG2 cells at 50 uM after 72 hrs by MTT assay; assay type: functional; details: HepG2, 72 h, read-out: GI
[11] = test system: SK-N-SH; assay: Growth inhibition of human SK-N-SH cells at 30 uM after 72 hrs by MTT assay; assay type: functional; details: read-out: GI
[12] = test system: SK-N-SH; assay: Growth inhibition of human SK-N-SH cells at 50 uM after 72 hrs by MTT assay; assay type: functional; details: read-out: GI
[13] = Growth inhibition of human HL60 cells after 72 hrs by MTT assay; assay type: functional, cell-based; details: HL-60, 72 h
[14] = Growth inhibition of human MIAPaCa2 cells after 72 hrs by MTT assay; assay type: functional, cell-based; details: MIA PaCa-2, 72 h
[15] = test system: MCF7; assay: Growth inhibition of human MCF7 cells after 72 hrs by MTT assay; assay type: functional, cell-based; details: MCF7, 72 h
[16] = test system: HepG2; assay: Growth inhibition of human HepG2 cells after 72 hrs by MTT assay; assay type: functional, cell-based; details: HepG2, 72 h
[17] = test system: SK-N-SH; assay: Growth inhibition of human SK-N-SH cells after 72 hrs by MTT assay; assay type: functional, cell-based
[18] = Growth inhibition of human HL60 cells after 24 hrs by MTT assay; assay type: functional, cell-based; details: HL-60, 24 h
[19] = Cell cycle arrest in human HL60 cells assessed as apoptotic cells at 5 uM after 24 hrs by propidium iodide-staining based flow cytometry (reference value: 3%); assay type: functional; details: HL-60
[20] = Cell cycle arrest in human HL60 cells assessed as accumulation at G1 phase at 5 uM after 24 hrs by propidium iodide-staining based flow cytometry (reference value: 36%); assay type: functional; details: HL-60
[21] = Cell cycle arrest in human HL60 cells assessed as accumulation at S phase at 5 uM after 24 hrs by propidium iodide-staining based flow cytometry (reference value: 63%); assay type: functional; details: HL-60
[22] = Cell cycle arrest in human HL60 cells assessed as accumulation at G2 phase at 5 uM after 24 hrs by propidium iodide-staining based flow cytometry (reference value: 1%); assay type: functional; details: HL-60
[23] = Cell cycle arrest in human HL60 cells assessed as apoptotic cells at 10 uM after 24 hrs by propidium iodide-staining based flow cytometry (reference value: 3%); assay type: functional; details: HL-60
[24] = Cell cycle arrest in human HL60 cells assessed as accumulation at G1 phase at 10 uM after 24 hrs by propidium iodide-staining based flow cytometry (reference value: 36%); assay type: functional; details: HL-60
[25] = Cell cycle arrest in human HL60 cells assessed as accumulation at S phase at 10 uM after 24 hrs by propidium iodide-staining based flow cytometry (reference value: 63%); assay type: functional; details: HL-60
[26] = Cell cycle arrest in human HL60 cells assessed as accumulation at G2 phase at 10 uM after 24 hrs by propidium iodide-staining based flow cytometry (reference value: 1%); assay type: functional; details: HL-60
[27] = Cell cycle arrest in human HL60 cells assessed as apoptotic cells at 15 uM after 24 hrs by propidium iodide-staining based flow cytometry (reference value: 3%); assay type: functional; details: HL-60
[28] = Cell cycle arrest in human HL60 cells assessed as accumulation at G1 phase at 15 uM after 24 hrs by propidium iodide-staining based flow cytometry (reference value: 36%); assay type: functional; details: HL-60
[29] = Cell cycle arrest in human HL60 cells assessed as accumulation at S phase at 15 uM after 24 hrs by propidium iodide-staining based flow cytometry (reference value: 63%); assay type: functional; details: HL-60
[30] = Cell cycle arrest in human HL60 cells assessed as accumulation at G2 phase at 15 uM after 24 hrs by propidium iodide-staining based flow cytometry (reference value: […]); assay type: functional; details: HL-60
[31] = Cell cycle arrest in human HL60 cells assessed as apoptotic cells at 20 uM after 24 hrs by propidium iodide-staining based flow cytometry (reference value: 3%); assay type: functional; details: HL-60
[32] = Cell cycle arrest in human HL60 cells assessed as accumulation at G1 phase at 20 uM after 24 hrs by propidium iodide-staining based flow cytometry (reference value: 36%); assay type: functional; details: HL-60
[33] = Cell cycle arrest in human HL60 cells assessed as accumulation at S phase at 20 uM after 24 hrs by propidium iodide-staining based flow cytometry (reference value: […]); assay type: functional; details: HL-60
[34] = Cell cycle arrest in human HL60 cells assessed as accumulation at G2 phase at 20 uM after 24 hrs by propidium iodide-staining based flow cytometry (reference value: […]); assay type: functional; details: HL-60
[35] = test system: HL-60; assay: Reduction in mitochondrial membrane potential in human HL60 cells at 10 uM after 24 hrs by Rh-123-staining based flow cytometry (reference value: 7%); assay type: functional; set-up: scale not given: the % may be the effect or the level left
[36] = test system: HL-60; assay: Reduction in mitochondrial membrane potential in human HL60 cells at 15 uM after 24 hrs by Rh-123-staining based flow cytometry (reference value: 7%); assay type: functional; set-up: scale not given: the % may be the effect or the level left
[37] = test system: HL-60; assay: Reduction in mitochondrial membrane potential in human HL60 cells at 20 uM after 24 hrs by Rh-123-staining based flow cytometry (reference value: 7%); assay type: functional; set-up: scale not given: the % may be the effect or the level left
[38] = test system: HL-60; assay: Induction of apoptosis in human HL60 cells assessed as effect on morphology at 5 to 20 uM after 24 hrs by phase-contrast microscopy; assay type: functional, cell-based
[39] = test system: HL-60; assay: Induction of apoptosis in human HL60 cells assessed as apoptotic bodies formation at 5 to 20 uM after 24 hrs by Hoechst 33342-staining based fluorescence microscopy; assay type: functional, cell-based

Row | IC50 [15] [µM] | IC50 [16] [µM] | IC50 [17] [µM] | SMILES | Activity [1] [%] | inhibition of growth at 30 µM [3] [%] | inhibition of growth at 50 µM [4] [%] | inhibition of growth at 30 µM [5] [%] | inhibition of growth at 50 µM [6] [%] | inhibition of growth at 30 µM [7] [%] | inhibition of growth at 50 µM [8] [%] | inhibition of growth at 30 µM [9] [%] | inhibition of growth at 50 µM [10] [%] | inhibition of growth at 30 µM [11] [%] | inhibition of growth at 50 µM [12] [%] | IC50 [13] [µM] | IC50 [14] [µM] | IC50 [18] [µM] | Activity [19] [%] | Activity [20] [%] | Activity [21] [%] | also measured
1 | 12 | 20 | 14 | C=CCc1cc(O)c(O)c(CN2CCNCC2)c1 | 38 | 92.5 | 94.4 | 82.8 | 85.6 | 69.2 | 74.2 | 64.2 | 73 | 65.3 | 69.9 | 2 | 4 | 12 | 8 | 41 | 57 | Activity [2]: Dose-dependent effect; Activity [22]: 2%; Activity [23]: 11%; Activity [24]: 59%; Activity [25]: 37%; Activity [26]: 4%; Activity [27]: 27%; Activity [28]: 50%; Activity [29]: 39%; Activity [30]: 11%; Activity [31]: 88%; Activity [32]: 52%; Activity [33]: 44%; Activity [34]: 4%; Activity [35]: 44%; Activity [36]: 45%; Activity [37]: 46%; Activity [38]: Active
2 | > 30 | > 30 | > 30 | C=CCc1ccc(O)c(O)c1 [HYDROXYCHAVICOL] | 17 | 88.8 | 92.4 | 41.7 | 42.8 | 36.9 | 44.1 | 27.2 | 29.3 | 34.2 | 71.7 | 3 | > 30 | 50 | 5 | 35 | 57 | Activity [22]: 8%; Activity [23]: 9%; Activity [24]: 37%; Activity [25]: 54%; Activity [26]: 9%; Activity [27]: 10%; Activity [28]: 17%; Activity [29]: 61%; Activity [30]: 22%; Activity [31]: 10%; Activity [32]: 27%; Activity [33]: 67%; Activity [34]: 6%; Activity [35]: 22%; Activity [36]: 26%; Activity [37]: 42%; Activity [39]: Active; Activity [38]: Active
3 | 9 | 16 | 11 | C=CCc1cc(O)c(O)c(CN2CCN(c3ccccc3O)CC2)c1 | 38 | 90.3 | 93.5 | 88.7 | 89.9 | 77.7 | 79.7 | 72.8 | 82.8 | 69.2 | 79.5 | 1 | 3 | 10 | 7 | 47 | 52 | Activity [2]: Dose-dependent effect; Activity [22]: 1%; Activity [23]: 12%; Activity [24]: 41%; Activity [25]: 52%; Activity [26]: 7%; Activity [27]: 52%; Activity [28]: 21%; Activity [29]: 78%; Activity [30]: 1%; Activity [31]: 89%; Activity [32]: 51%; Activity [33]: 44%; Activity [34]: 5%; Activity [35]: 44%; Activity [36]: 59%; Activity [37]: 71%; Activity [38]: Active
